Target: Programmed cell death protein 1/Programmed cell death 1 ligand 1 (Homo sapiens, UniProt Q15116+Q9NZQ7)
Assay: Binding of the protein pairs is measured using a bead based Amplified Luminescent Proximity Homogeneous Assay (ALPHA) platform. Binding of each protein pair results in proximity of the donor and acceptor beads which leads to an increase in ALPHA signal. […] Assays are performed in 25 mM Hepes (pH 7.4), 150 mM NaCl, 3.4 mM EDTA, 0.005% Tween 20, and 0.01% BSA. […] After an assay reaction time of 60 minutes at 25° C., binding was measured with addition of 20 μg/mL ALPHA assay acceptor beads (anti-His coated) and 20 µg/mL ALPHA assay donor beads (streptavidin coated). IC50 values were calculated from the fit of the dose-response curves to a four-parameter equation.
Assay type: protein-complex assay

Programmed cell death protein 1/Programmed cell death 1 ligand 1, sequence (Q15116 whole entry): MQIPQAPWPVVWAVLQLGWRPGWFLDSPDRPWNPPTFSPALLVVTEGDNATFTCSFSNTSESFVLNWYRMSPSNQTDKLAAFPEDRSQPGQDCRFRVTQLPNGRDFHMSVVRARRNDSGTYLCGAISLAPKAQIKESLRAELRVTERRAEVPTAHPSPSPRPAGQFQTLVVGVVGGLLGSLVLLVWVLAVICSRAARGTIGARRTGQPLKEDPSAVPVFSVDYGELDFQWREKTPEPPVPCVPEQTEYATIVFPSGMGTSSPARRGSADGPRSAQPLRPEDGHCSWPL
Programmed cell death protein 1/Programmed cell death 1 ligand 1, sequence (Q9NZQ7 whole entry): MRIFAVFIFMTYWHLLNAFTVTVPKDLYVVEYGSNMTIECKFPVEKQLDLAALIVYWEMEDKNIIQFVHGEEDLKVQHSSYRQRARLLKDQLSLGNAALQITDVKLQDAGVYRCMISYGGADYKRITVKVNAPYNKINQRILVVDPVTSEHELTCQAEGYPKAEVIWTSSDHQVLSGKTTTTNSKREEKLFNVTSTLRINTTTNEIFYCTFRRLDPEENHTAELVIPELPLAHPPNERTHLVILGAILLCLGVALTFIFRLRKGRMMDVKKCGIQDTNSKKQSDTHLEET

## COc1nc(-c2cccc(-c3cccc(-c4cnc(CN5CC(C(C)(C)O)C5)c(OC)n4)c3Cl)c2Cl)cnc1CN
  IC50: 346 pM
